Data on twelve molecules can be found in US20220259212A1, “INHIBITORS OF INDOLEAMINE 2,3-DIOXYGENASE AND/OR TRYPTOPHAN 2,3-DIOXYGENASE” (Idorsia Pharmaceuticals Ltd, priority 2019, published 2022).

The target of assay [1] is T1, Recombinant full-length human IDO1 (Homo sapiens, UniProt P14902).
T1 construct: Recombinant full-length human IDO1 with a N-terminal hexahistidine tag; hexahistidine (N); made in house; host or cells: E. coli
The assay is described as follows: IDO1 enzymatic assay (NFK quantified by LCMS). The class given is biochemical. The note with it: 2 nM enzyme, 5 μM L-tryptophan, 30 min pre-incubation, pH6.5; mean if measured multiple times; read-out: hIDO activity (IC50 in nM). The procedure: 1) Testing Compounds for IDO Inhibitory Activity in an IDO1 Enzymatic Assay:
Recombinant full-length human IDO1 with a N-terminal hexahistidine tag expressed in E. coli and purified to homogeneity is incubated at a final concentration of 2 nM in assay buffer consisting of 37.5 mM phosphate buffer at pH6.5 supplemented with 10 mM ascorbic acid, 0.45 μM methylene blue, 50 U/ml catalase, 0.01% BSA, and 0.01% Tween 20 (protocol modified from Seegers et al, JBS 2014). Example compounds are serially diluted in DMSO, further diluted in phosphate buffer, and added to the enzyme at final concentrations ranging from 10 μM to 0.5 nM. The final DMSO concentration is 0.6%. Following a pre-incubation of 30 minutes at RT, the reaction is started by the addition of L-tryptophan at a final concentration of 5 μM in assay buffer. After 30 minutes of incubation at RT, 3 μL of the 20 μl reaction mixture are transferred to a 384 deep well plate containing 25 μL of deionized water. 100 μl of 200 nM L-Tryptophan-(indole-d5) in cold 100% methanol are added followed by a 10 minutes centrifugation at 3220×g at 4° C. An additional 75 μL of deionized water are then added followed by a 10 minutes centrifugation at 3220×g at 4° C. The product of the reaction N′-Formylkynurenine (NFK) is quantified by LCMS and normalized to the L-Tryptophan-(indole-d5) signal. Samples with 0.6% DMSO (0% effect) and a TDO/IDO inhibitor (100% effect) are used as control samples to set the parameters for the non-linear regression necessary for the determination of the half-maximal inhibitory concentration (IC50) for each compound. For each compound concentration the percentage of activity compared to 0% and 100% effect is calculated as average±STDEV (each concentration measured in duplicate). IC50 values and curves are generated with XLfit software (IDBS) using Dose-Response One Site model 203 (four parameter logistic curve model). The calculated IC50 values may fluctuate depending on the daily assay performance. Fluctuations of this kind are known to those skilled in the art. When compounds are measured multiple times, mean values are given.

In the next assay the target is T2, IDO1 in SKOV3 cells (Homo sapiens, UniProt P14902).
T2 construct: SKOV3 cells (NCI, No. 0503405) which upregulate IDO1 after stimulation with IFNγ; host or cells: SKOV3 cells stimulated with IFNγ
Kind of assay: Cell-based IDO inhibitory activity in IFNγ-stimulated SKOV3 cells (NFK + kynurenine by LCMS). The note with it: IFNγ 50 ng/ml, 200 uM L-tryptophan, 24 hours. The source says:
3) Testing Compounds for IDO/TDO Inhibitory Activity and Toxicity in Cell-Based Assays
SW48 cells (ATCC, CCL-231) are used to measure compounds for TDO inhibitory activity and are routinely maintained in DMEM high glucose/GlutaMAX™/pyruvate 90% (v/v), FCS 10% (v/v), Penicilin/streptomycin 1% (v/v). SKOV3 cells (NCI, No. 0503405) which upregulate IDO1 after stimulation with IFNγ are used to measure compounds for IDO inhibitory activity. SKOV3 cells are routinely maintained in RPMI 90% (v/v), FCS 10% (v/v), Penicilin/streptomycin 1% (v/v). SW48 or SKOV3 cells are seeded in 384 well plates at a density of 8000 cells in 45 ul per well or 4000 cells in 45 ul per well, respectively. Plates are incubated at 37° C./5% CO2 for 24 hours. On the next day, 10 ul compound in serial dilutions (tested concentration range 10 uM-40 nM) and 200 uM L-tryptophan are added (SKV03 receive in addition IFNγ at a final concentration of 50 ng/ml). After 24 hours of incubation at 37° C./5% CO2, 3 ul of the supernatant per well is transferred to 25 ul H2O per well in a 384 deep well plate and 25 ul of the supernatant per well is transferred to waste. The SKOV3 and SW48 cell plates with 25 ul supernatant per well remaining are used to measure viability (see below). The 384 deep well plate containing 3 ul supernatant and 25 ul H2O per well are further processed for LCMS: After the addition of 100 ul L-tryptophan-(indole-d5) (Sigma 615862) at 200 nM in methanol, the 384 deep well plates are centrifuged for 10 minutes at 3220×g at 4° C., 75 ul H2O is added per well and plates centrifuged again for 10 minutes at 3220×g at 4° C. N-formylkynurenine and kynurenine are quantified by LCMS, normalized to the internal standard L-tryptophan-(indole-d5) and the sum is calculated. Samples with 0.2% DMSO (0% effect) and a TDO/IDO inhibitor (100% effect) are used as control samples to set the parameters for the non-linear regression necessary for the determination of the IC50 for each compound. For each compound concentration the percentage of activity compared to 0% and 100% effect is calculated as average±STDEV (each concentration measured in duplicate). IC50 values and curves are generated with XLfit software (IDBS) using Dose-Response One Site model 203. The calculated IC50 values may fluctuate depending on the daily cellular assay performance. Fluctuations of this kind are known to those skilled in the art. When compounds are measured multiple times, mean values are given.

The target in assay [2] is T3, Recombinant human TDO comprising amino acids 19-407 (Homo sapiens, UniProt P48775).
T3 construct: human TDO comprising amino acids 19-407; hexahistidine (N); made in house; host or cells: E. coli
The assay is described as follows: TDO2 enzymatic assay (NFK quantified by LCMS). The note with it: 15 nM enzyme, 200 μM L-tryptophan, 30 min pre-incubation, pH7; mean if measured multiple times; read-out: hTDO activity (IC50 in nM). The class given is biochemical. The procedure:
2) Testing Compounds for TDO Inhibitory Activity in a TDO2 Enzymatic Assay:
Recombinant human TDO comprising amino acids 19-407 with a N-terminal hexahistidine tag expressed in E. coli and purified to homogeneity is incubated at a final concentration of 15 nM in assay buffer consisting of 75 mM phosphate buffer at pH7 supplemented with 100 μM ascorbic acid, 50 U/ml Catalase, 0.01% BSA, and 0.01% Tween 20 (protocol modified from Seegers et al, JBS 2014). Example compounds are serially diluted in DMSO, further diluted in phosphate buffer, and added to the reaction mixture at final concentrations ranging from 10 μM to 0.5 nM. The final DMSO concentration is 0.6%. Following a pre-incubation of 30 minutes at RT, the reaction is started by the addition of L-tryptophan at a final concentration of 200 μM in assay buffer. After 30 minutes of incubation at RT, 3 μL of the reaction mixture are transferred to a 384 deep well plate containing 25 μL of deionized water. 100 μl of 200 nM L-Tryptophan-(indole-d5) in cold 100% methanol are added followed by a 10 minutes centrifugation at 3220×g at 4° C. An additional 75 μL of deionized water are then added followed by a 10 minutes centrifugation at 3220×g at 4° C. The product of the reaction N′-Formylkynurenine (NFK) is quantified by LCMS and normalized to the L-Tryptophan-(indole-d5) signal. Samples with 0.6% DMSO (0% effect) and a TDO/IDO inhibitor (100% effect) are used as control samples to set the parameters for the non-linear regression necessary for the determination of the half-maximal inhibitory concentration (IC50) for each compound. For each compound concentration the percentage of activity compared to 0% and 100% effect is calculated as average±STDEV (each concentration measured in duplicate). IC50 values and curves are generated with XLfit software (IDBS) using Dose-Response One Site model 203 (four parameter logistic curve model). The calculated IC50 values may fluctuate depending on the daily assay performance. Fluctuations of this kind are known to those skilled in the art. When compounds are measured multiple times, mean values are given.

Bounds are passed on as bounds.

T3 sequence (P48775 19-406 limits assumed): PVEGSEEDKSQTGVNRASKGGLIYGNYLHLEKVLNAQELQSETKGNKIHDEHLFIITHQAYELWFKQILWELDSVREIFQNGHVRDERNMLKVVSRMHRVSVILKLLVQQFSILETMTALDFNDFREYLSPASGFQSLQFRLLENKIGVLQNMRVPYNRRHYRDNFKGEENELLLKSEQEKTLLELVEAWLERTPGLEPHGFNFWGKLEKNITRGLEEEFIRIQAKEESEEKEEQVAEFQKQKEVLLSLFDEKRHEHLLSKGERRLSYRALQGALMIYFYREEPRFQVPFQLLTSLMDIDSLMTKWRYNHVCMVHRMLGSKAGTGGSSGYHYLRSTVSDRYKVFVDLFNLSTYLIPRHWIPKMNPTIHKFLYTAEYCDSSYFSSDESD
T1 sequence (P14902 whole entry): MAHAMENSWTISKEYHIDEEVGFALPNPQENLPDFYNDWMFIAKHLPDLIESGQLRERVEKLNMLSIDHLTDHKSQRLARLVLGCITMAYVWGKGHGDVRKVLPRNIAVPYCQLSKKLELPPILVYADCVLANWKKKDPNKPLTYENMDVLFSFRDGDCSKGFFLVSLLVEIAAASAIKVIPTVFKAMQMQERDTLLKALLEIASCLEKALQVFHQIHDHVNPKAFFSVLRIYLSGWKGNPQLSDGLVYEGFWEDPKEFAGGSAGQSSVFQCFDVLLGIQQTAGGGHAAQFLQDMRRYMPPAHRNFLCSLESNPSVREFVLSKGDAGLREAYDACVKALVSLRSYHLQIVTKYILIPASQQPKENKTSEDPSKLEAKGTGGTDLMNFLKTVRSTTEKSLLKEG
T2 sequence (P14902 whole entry): as above

Turning to `COc1ccc(-n2cc(C(O)c3c(C4CC4)ccc4cncn34)nn2)cc1` (racemic) [Example 4, rac-(6-Cyclopropyl-imidazo[1,5-a]pyridin-5-yl)-[1-(4-methoxy-phenyl)-1H-[1,2,3]triazol-4-yl]-methanol], the figures for the IC50 (in assay [1]; at IDO1 in SKOV3 cells; in assay [2]) were 3.7 nM, 42.2 nM and > 10200 nM, respectively.

Consider `Cc1ccc(-n2cc(C(O)c3c(C4CC4)ccc4cncn34)nn2)cc1` (racemic) [Example 5, rac-(6-Cyclopropyl-imidazo[1,5-a]pyridin-5-yl)-(1-p-tolyl-1H-[1,2,3]triazol-4-yl)-methanol], for which the IC50 in assay [1] was 4.83 nM; on IDO1 in SKOV3 cells, 53.7 nM; in assay [2], > 10200 nM.

Turning to `COC(=O)Nc1ccc(-n2cc(C(O)c3c(C4CC4)ccc4cncn34)nn2)cc1` (racemic) [Example 6, rac-(4-{4-[(6-Cyclopropyl-imidazo[1,5-a]pyridin-5-yl)-hydroxy-methyl]-[1,2,3]triazol-1-yl}-phenylycarbamic acid methyl ester], the half-inhibitory concentration (IC50) in assay [1] was 9.14 nM; on IDO1 in SKOV3 cells it was 11.8 nM; in assay [2], > 10200 nM.

As to `Oc1ccc(-n2cc(C(O)c3c(C4CC4)ccc4cncn34)nn2)cc1Cl` (racemic) [Example 7, rac-2-Chloro-4-{4-[(6-cyclopropyl-imidazo[1,5-a]pyridin-5-yl)-hydroxy-methyl]-[1,2,3]triazol-1-yl}-phenol], the IC50 is 3.77 nM in assay [1], 6.12 nM at IDO1 in SKOV3 cells and > 10200 nM in assay [2].

`COc1ccc(-n2cc(C(O)c3c(C4CC4)ccc4cncn34)nn2)cc1Cl` (racemic) [Example 8, rac-[1-(3-Chloro-4-methoxy-phenyl)-1H-[1,2,3]triazol-4-yl]-(6-cyclopropyl-imidazo[1,5-a]pyridin-5-yl)-methanol]: the half-inhibitory concentration (IC50) in assay [1] was 7.41 nM; on IDO1 in SKOV3 cells, 8.8 nM; in assay [2] it was > 10200 nM.

`CCOc1ccc(-n2cc(C(O)c3c(C4CC4)ccc4cncn34)nn2)cn1` (racemic) [Example 9, rac-(6-Cyclopropyl-imidazo[1,5-a]pyridin-5-yl)-[1-(6-ethoxy-pyridin-3-yl)-1H-[1,2,3]triazol-4-yl]-methanol]: the results for the IC50 (in assay [1]; at IDO1 in SKOV3 cells; in assay [2]) were 5.43 nM, 31.2 nM and > 10200 nM, respectively.

`Oc1ccc(-n2cc(C(O)c3c(C4CC4)ncc4cncn34)nn2)cc1Cl` (racemic) [Example 10, rac-2-Chloro-4-{4-[(6-cyclopropyl-imidazo[1,5-a]pyrazin-5-yl)-hydroxy-methyl]-[1,2,3]triazol-1-yl}-phenol]: the half-maximal inhibitory concentration (IC50) was 9.6 nM in assay [1], 25.4 nM on IDO1 in SKOV3 cells and > 10200 nM in assay [2].

For the molecule `COc1ccc(-n2cc(C(O)c3c(C4CC4)ncc4cncn34)nn2)cc1Cl` (racemic) [Example 11, rac-[1-(3-Chloro-4-methoxy-phenyl)-1H-[1,2,3]triazol-4-yl]-(6-cyclopropyl-imidazo[1,5-a]pyrazin-5-yl)-methanol], the IC50 in assay [1] was 12.5 nM; at IDO1 in SKOV3 cells it was 37.1 nM; in assay [2], > 10200 nM.

As for `COC(=O)Nc1ccc(-n2cc(C(O)c3c(C4CC4)ncc4cncn34)nn2)cc1` (racemic) [Example 12, rac-(4-{4-[(6-Cyclopropyl-imidazo[1,5-a]pyrazin-5-yl)-hydroxy-methyl]-[1,2,3]triazol-1-yl}-phenyl)-carbamic acid methyl ester], the half-maximal inhibitory concentration (IC50) was 21.5 nM in assay [1], 73.9 nM on IDO1 in SKOV3 cells and > 10200 nM in assay [2].

`CCOc1ccc(-n2cc(C(O)c3c(C4CC4)ncc4cncn34)nn2)cn1` (racemic) [Example 13, rac-(6-Cyclopropyl-imidazo[1,5-a]pyrazin-5-yl)-[1-(6-ethoxy-pyridin-3-yl)-1H-[1,2,3]triazol-4-yl]-methanol]: the IC50 in assay [1] was 27.2 nM; at IDO1 in SKOV3 cells, 326 nM; in assay [2], > 10200 nM.

As to `Oc1ccc(-n2cc(C(O)c3c(C4CC4)ccc4cncn34)nn2)cc1` (racemic) [Example 14, rac-4-{4-[(6-Cyclopropyl-imidazo[1,5-a]pyridin-5-yl)-hydroxy-methyl]-[1,2,3]triazol-1-yl}-phenol], the results for the IC50 (in assay [1]; at IDO1 in SKOV3 cells; in assay [2]) were 5.05 nM, 34.6 nM and > 10200 nM, respectively.

As to `Oc1ccc(-n2cc(C(O)c3c(C4CC4)ncc4cncn34)nn2)cc1` (racemic) [Example 15, rac-4-{4-[(6-Cyclopropyl-imidazo[1,5-a]pyrazin-5-yl)-hydroxy-methyl]-[1,2,3]triazol-1-yl}-phenol], the results for the IC50 (in assay [1]; at IDO1 in SKOV3 cells; in assay [2]) were 13.1 nM, 208 nM and 9610 nM, respectively.
